This test has as its target T1, BlaC β-lactamase (Mycobacterium tuberculosis, UniProt P9WKD3).
T1 sequence (P9WKD3 35-307): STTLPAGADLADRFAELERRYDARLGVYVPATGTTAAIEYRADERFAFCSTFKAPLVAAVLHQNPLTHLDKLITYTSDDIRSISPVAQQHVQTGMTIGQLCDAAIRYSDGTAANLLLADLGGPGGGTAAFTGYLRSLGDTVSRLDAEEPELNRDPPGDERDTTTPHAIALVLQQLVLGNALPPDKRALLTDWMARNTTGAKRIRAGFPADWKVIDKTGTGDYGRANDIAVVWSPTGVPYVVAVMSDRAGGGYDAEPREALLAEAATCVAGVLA
Kind of test: biochemical.

Take `C[C@@H](O)[C@H]1C(=O)N2C(C(=O)O)=C(S[C@@H]3CN[C@H](C(=O)N(C)C)C3)[C@H](C)[C@H]12` [meropenem]: the Ki – broadly, a dissociation constant, usually derived from enzyme kinetics or from competition with a known ligand – was 1100 ± 800 nM.
